The results in this text go back to patent US20230339865A1, “QUINAZOLINE-DERIVED HCK INHIBITORS FOR USE IN THE TREATMENT OF MYD88 MUTATED DISEASES” (Dana-Farber Cancer Institute, Inc., priority 2020, published 2023).

Molecules are shown by their SMILES.

Usually IC50 stands for the concentration at which inhibition is half-maximal. Higher therefore signals weaker potency.

Data set [1] deals with T1, MAP3K7/MAP3K7IP1 (TAK1-TAB1) (Homo sapiens, UniProt O43318).
T1 construct: purchased Invitrogen
As to the kind of experiment: Invitrogen kinase assay MAP3K7/MAP3K7IP1 (TAK1-TAB1). The class given is biochemical. As for the experimental part: (§1) The IC50 values were also determined for Compound (I-1) using an Invitrogen kinase assay. The results are shown in Table 2, along with comparison data with TL2-059.

Data set [2] is described as follows: microsome stability (rat). The settings on record: microsomes, read-out: microsome stability (T1/2, min). Format: in vitro ADME. As for the experimental part: (§2) The compounds were tested against several different cell lines, and the ED50 values determined, along with the microsome stability.
Data set [3] deals with T2, MAP4K1 (HPK1) (Homo sapiens, UniProt Q92918).
T2 construct: purchased Invitrogen
T2 sequence (Q92918 whole entry): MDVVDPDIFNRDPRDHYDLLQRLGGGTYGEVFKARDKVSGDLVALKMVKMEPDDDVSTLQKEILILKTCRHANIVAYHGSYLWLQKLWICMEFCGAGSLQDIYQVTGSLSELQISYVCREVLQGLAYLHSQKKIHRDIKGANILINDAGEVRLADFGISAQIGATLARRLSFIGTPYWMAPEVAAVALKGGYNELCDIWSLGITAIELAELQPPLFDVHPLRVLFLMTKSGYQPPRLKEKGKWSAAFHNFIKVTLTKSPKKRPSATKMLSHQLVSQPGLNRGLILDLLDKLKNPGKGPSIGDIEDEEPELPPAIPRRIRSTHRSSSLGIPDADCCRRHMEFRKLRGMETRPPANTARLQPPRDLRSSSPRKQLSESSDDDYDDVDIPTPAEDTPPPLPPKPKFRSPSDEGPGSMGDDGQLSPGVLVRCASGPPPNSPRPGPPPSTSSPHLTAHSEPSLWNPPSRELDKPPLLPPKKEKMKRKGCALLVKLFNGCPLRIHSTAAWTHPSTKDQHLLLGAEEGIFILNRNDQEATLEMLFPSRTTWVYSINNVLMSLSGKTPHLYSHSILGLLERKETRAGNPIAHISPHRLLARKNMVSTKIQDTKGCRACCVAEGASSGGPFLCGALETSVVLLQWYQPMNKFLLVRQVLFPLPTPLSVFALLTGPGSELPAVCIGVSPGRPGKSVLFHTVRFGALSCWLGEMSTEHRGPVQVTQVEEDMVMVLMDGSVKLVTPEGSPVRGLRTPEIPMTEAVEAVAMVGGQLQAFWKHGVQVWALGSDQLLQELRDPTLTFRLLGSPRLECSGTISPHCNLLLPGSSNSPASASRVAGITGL
As to the kind of experiment: Invitrogen kinase assay MAP4K1 (HPK1). The class given is biochemical. As for the experimental part: as §1

Data set [4] concerns the target T3, LCK (Homo sapiens, UniProt P06239).
T3 construct: purchased Invitrogen
Put plainly: Invitrogen kinase assay LCK. Format: biochemical. As for the experimental part:
as §1

The target in data set [5] is T4, MAPK14 (p38 alpha) Direct (Homo sapiens, UniProt Q16539).
T4 construct: purchased Invitrogen
T4 sequence (Q16539 whole entry): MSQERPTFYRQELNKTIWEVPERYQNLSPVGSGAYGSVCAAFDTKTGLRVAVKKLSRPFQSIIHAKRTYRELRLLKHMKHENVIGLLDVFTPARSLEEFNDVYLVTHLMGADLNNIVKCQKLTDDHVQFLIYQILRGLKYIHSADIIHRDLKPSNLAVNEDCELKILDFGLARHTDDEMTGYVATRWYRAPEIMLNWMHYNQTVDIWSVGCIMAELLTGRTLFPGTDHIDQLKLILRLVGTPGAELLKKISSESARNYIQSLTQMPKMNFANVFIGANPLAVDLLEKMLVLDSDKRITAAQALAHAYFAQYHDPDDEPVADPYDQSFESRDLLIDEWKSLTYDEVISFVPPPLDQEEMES
As to the kind of experiment: Invitrogen kinase assay MAPK14 (p38 alpha) Direct. The class given is biochemical. Here is the method:
as §1

The target in data set [6] is T5, HCK (Homo sapiens, UniProt P08631). As to the kind of experiment: HCK inhibition in MYD88 mutated cells. The conditions noted are these: MYD88 mutated WM and ABC DLBCL cell lines and primary WM cells. Format: cell-based.
T5 sequence (P08631 whole entry): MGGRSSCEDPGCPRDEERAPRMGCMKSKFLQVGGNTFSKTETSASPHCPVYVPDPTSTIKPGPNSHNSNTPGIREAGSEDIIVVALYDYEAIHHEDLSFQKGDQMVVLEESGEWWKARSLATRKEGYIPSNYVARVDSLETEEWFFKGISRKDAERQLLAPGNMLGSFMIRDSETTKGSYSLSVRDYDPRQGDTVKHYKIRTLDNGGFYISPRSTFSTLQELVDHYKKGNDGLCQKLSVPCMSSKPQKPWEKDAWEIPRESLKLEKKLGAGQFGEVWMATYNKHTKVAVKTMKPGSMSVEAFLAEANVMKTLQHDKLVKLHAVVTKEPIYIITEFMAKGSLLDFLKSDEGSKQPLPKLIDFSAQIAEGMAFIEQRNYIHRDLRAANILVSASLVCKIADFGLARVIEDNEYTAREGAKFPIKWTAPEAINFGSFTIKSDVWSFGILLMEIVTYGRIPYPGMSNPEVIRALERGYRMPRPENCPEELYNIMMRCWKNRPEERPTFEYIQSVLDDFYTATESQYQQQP
Data set [7] deals with T6, TAOK2 (TAO1) (Homo sapiens, UniProt Q9UL54).
T6 construct: purchased Invitrogen
Put plainly: Invitrogen kinase assay TAOK2 (TAO1). The class given is biochemical. As for the experimental part: as §1

The target of data set [8] is T7, SRC (Homo sapiens, UniProt P12931).
T7 construct: purchased Invitrogen
As to the kind of experiment: Invitrogen kinase assay SRC. The class given is biochemical. As for the experimental part: as §1

Data set [9] concerns the target T8, MAP4K2 (GCK) (Homo sapiens, UniProt Q12851).
T8 construct: purchased Invitrogen
As to the kind of experiment: Invitrogen kinase assay MAP4K2 (GCK). The class given is biochemical. As for the experimental part:
as §1

For data set [10], the target named is T9, ABL1 (Homo sapiens, UniProt P00519).
T9 construct: purchased Invitrogen
As to the kind of experiment: Invitrogen kinase assay ABL1. The class given is biochemical. As for the experimental part: as §1

The target in data set [11] is T5, HCK. Put plainly: Invitrogen kinase assay HCK. Format: biochemical. The arrangement: purchased Invitrogen. As for the experimental part:
as §1

In data set [12] the target is T10, LYN A (Homo sapiens, UniProt P07948).
T10 construct: purchased Invitrogen
As to the kind of experiment: Invitrogen kinase assay LYN A. The class given is biochemical. As for the experimental part:
as §1

Data set [13] relates to MYD88 mutated WM and ABC DLBCL cell lines, primary WM cells. Put plainly: Apoptotic effects in MYD88 mutated cells. Format: cell-based. The settings on record: vs. ibrutinib or A419259.
In data set [14] the test system is HCK, BTK, and NFκB. Put plainly: Pharmacodynamic studies in mice. Format: in vivo.
The target in data set [15] is T11, FER (Homo sapiens, UniProt P16591).
T11 construct: purchased Invitrogen
T11 sequence (P16591 whole entry): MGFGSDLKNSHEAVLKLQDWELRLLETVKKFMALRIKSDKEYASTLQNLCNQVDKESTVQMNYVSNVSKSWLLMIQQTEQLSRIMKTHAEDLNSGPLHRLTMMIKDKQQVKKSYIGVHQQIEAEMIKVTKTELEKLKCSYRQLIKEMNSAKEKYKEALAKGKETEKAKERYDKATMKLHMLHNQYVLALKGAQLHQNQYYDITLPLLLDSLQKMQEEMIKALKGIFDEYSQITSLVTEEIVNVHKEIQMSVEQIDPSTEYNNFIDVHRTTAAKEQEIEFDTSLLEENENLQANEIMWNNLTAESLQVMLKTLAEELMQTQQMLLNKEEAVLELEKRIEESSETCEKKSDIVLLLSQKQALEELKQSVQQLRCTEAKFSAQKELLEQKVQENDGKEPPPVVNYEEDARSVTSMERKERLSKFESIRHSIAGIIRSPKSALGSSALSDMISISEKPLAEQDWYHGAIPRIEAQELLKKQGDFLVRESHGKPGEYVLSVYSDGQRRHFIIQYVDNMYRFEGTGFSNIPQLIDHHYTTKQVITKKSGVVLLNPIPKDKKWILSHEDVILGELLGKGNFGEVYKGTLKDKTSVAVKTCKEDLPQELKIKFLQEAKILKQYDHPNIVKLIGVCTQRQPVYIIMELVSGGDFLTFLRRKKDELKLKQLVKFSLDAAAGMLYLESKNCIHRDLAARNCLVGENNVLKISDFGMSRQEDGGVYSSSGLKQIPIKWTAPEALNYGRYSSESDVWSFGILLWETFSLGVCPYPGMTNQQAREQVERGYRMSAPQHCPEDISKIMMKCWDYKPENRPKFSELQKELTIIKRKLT
Put plainly: Invitrogen kinase assay FER. Format: biochemical. Here is the method: as §1

For data set [16], the system named is MYD88 mutated ABC DLBCL TMD8 xenograft. As to the kind of experiment: In-vivo rat efficacy study in MYD88 mutated ABC DLBCL TMD8 xenografted rats. As for the experimental part:
Example 1. In-Vivo Rat Efficacy Study in MYD88 Mutated ABC DLBCL TMD8 Xenografted Rats
A rat efficacy study for was carried out with Compound (I-1) using an MYD88 mutated ABC DLBCL TMD8 xenografted rat model.

Data set [17] deals with T12, FES (FPS) (Homo sapiens, UniProt P07332).
T12 construct: purchased Invitrogen
T12 sequence (P07332 whole entry): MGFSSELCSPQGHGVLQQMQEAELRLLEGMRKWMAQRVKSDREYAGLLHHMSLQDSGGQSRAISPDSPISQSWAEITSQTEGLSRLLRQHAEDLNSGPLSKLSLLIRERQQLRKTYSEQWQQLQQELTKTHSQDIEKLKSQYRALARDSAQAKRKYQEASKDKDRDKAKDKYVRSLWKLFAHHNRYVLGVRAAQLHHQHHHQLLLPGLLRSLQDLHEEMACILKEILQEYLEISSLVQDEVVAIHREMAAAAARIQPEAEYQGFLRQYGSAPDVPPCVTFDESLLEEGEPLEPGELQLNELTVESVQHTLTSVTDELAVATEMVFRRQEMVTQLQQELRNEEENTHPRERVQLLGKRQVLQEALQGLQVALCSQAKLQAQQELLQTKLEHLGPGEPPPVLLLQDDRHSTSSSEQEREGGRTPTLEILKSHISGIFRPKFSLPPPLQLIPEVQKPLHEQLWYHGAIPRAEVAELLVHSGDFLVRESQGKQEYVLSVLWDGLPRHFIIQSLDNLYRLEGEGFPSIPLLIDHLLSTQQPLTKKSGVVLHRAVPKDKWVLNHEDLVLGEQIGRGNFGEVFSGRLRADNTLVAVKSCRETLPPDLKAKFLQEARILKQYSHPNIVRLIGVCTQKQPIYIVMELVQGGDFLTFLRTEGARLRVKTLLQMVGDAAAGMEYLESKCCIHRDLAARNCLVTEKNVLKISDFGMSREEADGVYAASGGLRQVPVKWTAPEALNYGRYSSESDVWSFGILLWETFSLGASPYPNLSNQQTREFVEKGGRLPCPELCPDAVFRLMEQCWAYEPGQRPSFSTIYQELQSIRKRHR
As to the kind of experiment: Invitrogen kinase assay FES (FPS). The class given is biochemical. Here is the method: as §1

In data set [18] the target is T13, TAOK1 (Homo sapiens, UniProt Q7L7X3).
T13 construct: purchased Invitrogen
T13 sequence (Q7L7X3 whole entry): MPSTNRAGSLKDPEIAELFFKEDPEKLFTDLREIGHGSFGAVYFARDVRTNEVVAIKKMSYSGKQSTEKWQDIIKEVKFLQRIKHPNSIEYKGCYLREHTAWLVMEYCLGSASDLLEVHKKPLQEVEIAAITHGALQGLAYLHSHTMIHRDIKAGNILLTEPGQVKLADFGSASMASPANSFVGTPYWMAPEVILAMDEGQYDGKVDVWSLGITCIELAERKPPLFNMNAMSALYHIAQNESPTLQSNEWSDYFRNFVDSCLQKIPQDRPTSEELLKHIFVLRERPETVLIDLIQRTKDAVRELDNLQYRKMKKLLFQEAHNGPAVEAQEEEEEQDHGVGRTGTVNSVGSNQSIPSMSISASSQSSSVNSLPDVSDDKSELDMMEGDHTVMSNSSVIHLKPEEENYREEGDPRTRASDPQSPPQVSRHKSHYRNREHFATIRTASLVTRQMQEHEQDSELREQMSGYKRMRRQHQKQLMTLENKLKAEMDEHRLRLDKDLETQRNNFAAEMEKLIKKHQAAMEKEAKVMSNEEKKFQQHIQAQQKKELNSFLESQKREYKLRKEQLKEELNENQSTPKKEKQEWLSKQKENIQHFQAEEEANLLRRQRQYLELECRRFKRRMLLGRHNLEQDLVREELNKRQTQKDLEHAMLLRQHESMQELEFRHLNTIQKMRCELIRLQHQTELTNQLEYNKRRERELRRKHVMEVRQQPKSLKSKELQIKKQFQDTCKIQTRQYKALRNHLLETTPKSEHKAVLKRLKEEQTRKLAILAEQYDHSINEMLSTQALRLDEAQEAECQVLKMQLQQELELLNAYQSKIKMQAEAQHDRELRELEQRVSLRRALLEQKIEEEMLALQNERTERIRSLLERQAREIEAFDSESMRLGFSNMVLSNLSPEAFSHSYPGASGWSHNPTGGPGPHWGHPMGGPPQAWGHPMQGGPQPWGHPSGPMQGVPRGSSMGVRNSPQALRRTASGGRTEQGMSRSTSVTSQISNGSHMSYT
As to the kind of experiment: Invitrogen kinase assay TAOK1. The class given is biochemical. Here is the method:
as §1

Data set [19] is described as follows: microsome stability (mouse). Format: in vitro ADME. The conditions noted are these: microsomes, read-out: microsome stability (T1/2, min). Here is the method:
as §2

In data set [20] the target is T14, ABL2 (Arg) (Homo sapiens, UniProt P42684).
T14 construct: purchased Invitrogen
Put plainly: Invitrogen kinase assay ABL2 (Arg). Format: biochemical. Here is the method: as §1

Data set [21] concerns the target T15, FGR (Homo sapiens, UniProt P09769).
T15 construct: purchased Invitrogen
Put plainly: Invitrogen kinase assay FGR. Format: biochemical. Here is the method:
as §1

A short description of data set [22]: microsome stability (human). Format: in vitro ADME. The settings on record: microsomes, read-out: microsome stability (T1/2, min). As for the experimental part:
as §2

The subject of data set [23] is healthy donor B- and T-cells. Put plainly: Effect on healthy donor B- and T-cells. The class given is cell-based.
The target in data set [24] is T16, TAOK3 (JIK) (Homo sapiens, UniProt Q9H2K8).
T16 construct: purchased Invitrogen
As to the kind of experiment: Invitrogen kinase assay TAOK3 (JIK). The class given is biochemical. As for the experimental part: as §1

Data set [25] has as its target T17, FYN (Homo sapiens, UniProt P06241).
T17 construct: purchased Invitrogen
As to the kind of experiment: Invitrogen kinase assay FYN. Format: biochemical. Here is the method:
as §1

T17 sequence (P06241 whole entry): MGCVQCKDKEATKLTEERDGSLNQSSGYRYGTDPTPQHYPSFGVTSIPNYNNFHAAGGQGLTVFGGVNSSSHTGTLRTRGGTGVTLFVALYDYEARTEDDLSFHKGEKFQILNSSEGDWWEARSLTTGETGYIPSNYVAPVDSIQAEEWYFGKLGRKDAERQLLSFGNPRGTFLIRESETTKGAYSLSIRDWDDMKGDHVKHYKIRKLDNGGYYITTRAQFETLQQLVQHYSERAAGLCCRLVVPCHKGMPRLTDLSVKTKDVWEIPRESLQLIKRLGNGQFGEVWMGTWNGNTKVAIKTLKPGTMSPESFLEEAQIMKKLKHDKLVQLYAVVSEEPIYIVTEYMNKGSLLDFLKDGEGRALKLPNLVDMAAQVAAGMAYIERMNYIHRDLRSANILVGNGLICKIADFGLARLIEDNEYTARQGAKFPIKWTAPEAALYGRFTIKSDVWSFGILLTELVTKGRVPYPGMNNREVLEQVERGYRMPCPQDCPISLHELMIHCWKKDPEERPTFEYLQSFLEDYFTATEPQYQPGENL

Turning to `CCN1CCN(Cc2ccc(NC(=O)c3ccc(C)c(Oc4ncnc5cc(NC)c(OC)cc45)c3)cc2C(F)(F)F)CC1` [Compound (I-1), N-(4-((4-ethylpiperazin-1-yl)methyl)-3-(trifluoromethyl)phenyl)-3-(6-methoxy-7-(methylamino)quinazolin-4-yloxy)-4-methylbenzamide], the IC50 was 24.1 nM in [1]; 11.8 nM in [3]; 4.73 nM in data set [4]; 79.7 nM in data set [5]; 61.3 nM in data set [7]; 77.5 nM in data set [8]. The IC50 in data set [9] was 8.35 nM; in data set [10] it was 32.3 nM; in data set [11] it was 7.39 nM; in data set [12], 8.77 nM; in [15] it was 9.81 nM; in data set [17], 11 nM. Moreover, the IC50 in data set [18] was determined as 194 nM; in [20] it was 45.5 nM; in [21] it was 8.02 nM; in [24], 413 nM; in [25], 419 nM. Also, the half-life in data set [2] worked out at 60.2 min; in [19], 42.4 min; in data set [22], 79.3 min. For the same molecule, the HCK inhibition result in data set [6] is reported as “inhibits HCK in a dose dependent Type II inhibition”. Moreover, in [13], the apoptotic effects result is listed as “potent apoptotic effects”. The “Pharmacodynamic inhibition of HCK, BTK, and NFκB” value in data set [14] was “inhibition of HCK, BTK, and NFκB”. Further, the tumor redistribution entry in data set [14] is reported as “dose-related tumor redistribution”. Besides, in data set [16] (30 mg/kg, TMD8 xenografted rat model), the “Mean tumor volume compared to vehicle” value was “lower Mean tumor volume compared to vehicle”. Besides, in data set [16] (TMD8 xenograft model, vehicle 22 survival days), the survival days worked out at 43 days. Further, in [23], the “effect on healthy donor B- and T-cells” value was “sparing of healthy donor B- and T-cells”.
For the molecule `CCN1CCN(Cc2ccc(NC(=O)c3ccc(C)c(Oc4ncnc5cc(N)c(OC)cc45)c3)cc2C(F)(F)F)CC1` [Compound (I-2), 3-(7-amino-6-methoxyquinazolin-4-yloxy)-N-(4-((4-ethylpiperazin-1-yl)methyl)-3-(trifluoromethyl)phenyl)-4-methylbenzamide], the half-life in data set [19] is 41.7 min.
The same measure, in the same setting: next, `COc1cc2c(Oc3cc(C(=O)Nc4cccc(C(F)(F)F)c4)ccc3C)ncnc2cc1NCCN1CCN(C)CC1` [Compound (I-4), 3-(6-methoxy-7-(2-(4-methylpiperazin-1-yl)ethylamino)quinazolin-4-yloxy)-4-methyl-N-(3-(trifluoromethyl)phenyl)benzamide]: 5.7 min.
Still for that read-out and setting: next, `CCN1CCN(Cc2ccc(NC(=O)c3ccc(C)c(Oc4ncnc5cc(NC)ccc45)c3)cc2C(F)(F)F)CC1` [Compound (I-14), N-(4-((4-ethylpiperazin-1-yl)methyl)-3-(trifluoromethyl)phenyl)-4-methyl-3-(7-(methylamino)quinazolin-4-yloxy)benzamide]: 20.4 min; `CCN1CCN(Cc2ccc(NC(=O)c3ccc(C)c(Oc4ncnc5cc6[nH]cnc6cc45)c3)cc2C(F)(F)F)CC1` [Compound (I-16), 3-(3H-imidazo[4,5-g]quinazolin-8-yloxy)-N-(4-((4-ethylpiperazin-1-yl)methyl)-3-(trifluoromethyl)phenyl)-4-methylbenzamide]: 8.6 min.
